From ChEMBL document CHEMBL4014292, “Novel 11-norbetaenone isolated from an entomopathogenic fungus Lecanicillium antillanum” (Bioorg Med Chem Lett, 2017) come the findings set out here.

Converted amounts (≈) assume the structure as drawn. The source made the active and inactive calls. No cut-off for these calls is given here.

Data set [1] has as its system Neutrophil. In words: Anti-inflammatory activity in fMLP/CB-stimulated human neutrophils assessed as reduction in superoxide generation at 30 ug/mL preincubated for 5 mins followed by cytochalasin B addition for 3 mins and subsequent fMLP-stimulation for 10 mins by ferricytochrome c reduction based spectrophotometric assay. It counts as functional, cell-based.
A short description of data set [2]: Cytotoxicity against CD34-positive human EPC at 25 to 50 ug/mL after 24 hrs by LDH release assay. In kind it is cell-based. On the technique in general: LDH leaks from cells whose membrane has failed.
The test system of data set [3] is Neutrophil. In words: Anti-inflammatory activity in fMLP/CB-stimulated human neutrophils assessed as reduction in elastase release at 30 ug/mL using MeO-Suc-Ala-Ala-Pro-Val-p-nitroanilide as substrate preincubated for 5 mins followed by cytochalasin B addition and subsequent fMLP-stimulation for 10 mins by spectrophotometric assay. It counts as functional, cell-based.

Data set [4] has as its system MDA-MB-231. The data set can be described thus: Antiproliferative activity against human MDA-MB-231 cells at 20 ug/mL after 72 hrs by MTT assay. It counts as functional, cell-based. In general terms: Formazan colour is commonly taken as a measure of viable cells.
The subject of data set [5] is Staphylococcus aureus. In words: Antimicrobial activity against Methicillin-resistant Staphylococcus aureus ATCC 33592 at 2 mg/ml after 24 hrs by agar well-diffusion method. In kind it is functional. (In general: In agar diffusion tests the substance spreads into inoculated agar from a disc or well.)
Data set [6] relates to HepG2. In words: Antiproliferative activity against human HepG2 cells at 20 ug/mL after 72 hrs by MTT assay. In kind it is functional, cell-based.
Data set [7] can be described thus: (§1) Antiangiogenic activity against human CD34-positive EPC assessed as inhibition of tube formation after 24 hrs by matrigel based inverted phase contrast microscopic analysis. It counts as functional, cell-based.
The subject of data set [8] is EPC. The description is as §1. It counts as functional, cell-based.
The test system of data set [9] is A549. In words: Antiproliferative activity against human A549 cells at 20 ug/mL after 72 hrs by MTT assay. In kind it is functional, cell-based.

For orientation: IC50 means the point on the concentration scale where inhibition reaches its midpoint.

Take `CC[C@@H](C)[C@H]1C=C[C@H]2[C@H](O)[C@@H](CO)C[C@@H](C)[C@@H]2[C@@]1(C)C(=O)CCO`: the result in data set [1], in data set [3], in data set [4], in [5], in data set [6] and in [9] was inactive. In addition, the Activity entry in [2] is given as “Non-Toxic”. In addition, in data set [7], the IC50 stood at 34.1 µg/mL (≈ 101 µM). Besides, the inhibition entry in data set [8] was “Dose-dependent effect”.
